Laboratory results from patent US10563263B2, “Genetic polymorphisms associated with statin response and cardiovascular diseases, methods of detection and uses thereof” (CELERA CORPORATION, priority 2010, dated 2020).

Key:
[1] = tested on: myocyte cultures; conditions: animal models and myocyte cultures; compared to lipophilic statins; cited from earlier work
[2] = tested on: CHD or CVD; assay: WOSCOPS: SNP by pravastatin treatment interaction, logistic regression (synergy index), cohort source; End-point (CHD or CVD) of the marker not given; format: in vivo, human
[3] = tested on: recurrent MI; assay: CARE: CHD statin response (recurrent MI) by SNP genotype, hazard ratio pravastatin vs placebo (Table 22); format: in vivo, human; conditions: rs873134 (hCV2652047), ref = placebo
Source text: (§1) In the analysis for which the results are provided in Table 22, the endpoint was recurrent MI, and the analysis was adjusted for age, gender, hypertension, diabetes, base LDL and HDL, and whether an individual was a current smoker.
In Tables 20-22, certain columns are labeled “RESP”, “PLACEBO, OR “ALL”. “RESP” is for statin response as measured by comparing risk (risk for stroke, including TIA, in Tables 20-21, and risk for CHD, specifically recurrent MI, in Table 22) in the pravastatin-treated group with risk in the placebo-treated group, “PLACEBO” is the placebo-treated group, and “ALL” is the combination of the placebo-treated group and the pravastatin-treated group. “RESP” is the analysis to assess statin response in the indicated genotype group.
“EVENTS” indicates the total number of events (stroke or TIA for Tables 20-21, and recurrent MI for Table 22) in individuals with the indicated genotype.
“HR” indicates the hazard ratio.
CARE was a secondary prevention trial and WOSCOPS was a primary prevention trial.
as §1, with “Thus, SNP rs873134 is an example of a SNP that is associated with statin response for reducing risk for both stroke and CHD. In” for “In”

For `CC[C@H](C)C(=O)O[C@H]1C[C@H](O)C=C2C=C[C@H](C)[C@H](CC[C@@H](O)C[C@@H](O)CC(=O)O)[C@H]21` [Pravastatin, pravastatin], the myopathic potential [1] is listed as “low myopathic potential”, the OR ([2]; marker rs1068705, pravastatin vs placebo) is listed as 0.74 and the OR ([2]; marker rs1564078, pravastatin vs placebo) is listed as 0.79. The OR ([2]; marker rs9557509, pravastatin vs placebo) was 1.42, the OR ([2]; marker rs10802865, pravastatin vs placebo) was 1.16 and the OR ([2]; marker rs11668038, pravastatin vs placebo) was 1.25. The OR ([2]; marker rs17035071, pravastatin vs placebo) was 1.22, the “HR_RESP (hazard ratio pravastatin vs placebo, CHD)” value ([3]; MODE DOM, genotype TC + TT) was 0.85 and the “HR_RESP (hazard ratio pravastatin vs placebo, CHD)” value ([3]; MODE GEN, genotype CC) was 0.48. The “HR_RESP (hazard ratio pravastatin vs placebo, CHD)” value ([3]; MODE GEN, genotype TC) was 1 and the “HR_RESP (hazard ratio pravastatin vs placebo, CHD)” value ([3]; MODE GEN, genotype TT) was 0.57.
